Measurements published in patent US10081630B2, “Radioactive halogen-labeled pyrido [1,2-A] benzimidazole derivative compound” (KYOTO UNIVERSITY, priority 2015, dated 2018).

What was measured:
[1] = Evaluation of in vivo radioactivity distribution in normal mouse; conditions: normal ddY male mice, tail vein; for radioactivity distribution, Blood / radioactivity distribution, Brain / radioactivity distribution, Heart / radioactivity distribution, Intestine / radioactivity distribution, Kidney / radioactivity distribution, Liver / radioactivity distribution, Lung / radioactivity distribution, Pancreas / radioactivity distribution, Spleen / radioactivity distribution, Stomach / radioactivity distribution, Thyroid gland: mean (SD)
Method: (Evaluation 2) Evaluation of In Vivo Radioactivity Distribution in Normal Mouse
Each compound of [^125I]BIP-NMe2, [^125I]BIP-OMe, and [^125I]BIP-Me synthesized according to the method shown in Example 7 was diluted with saline containing 10 vol % ethanol and 0.1 vol % Tween 80. Each radioactive iodine-labeled BIP derivative compound was administered to a group of 5-week-old ddY male mice (26 to 28 g; each group involved 5 mice) from the tail veins thereof at 19.6 to 29.4 kBq (100 μL) per mouse. After 2, 10, 30, or 60 minutes, the mice were slaughtered. After blood collection, the organs were taken out, and their weights and radioactivity were measured.
In Tables 2 to 4, the numerical values shown in the column “Time after administration” are means of % ID for the stomach and the thyroid gland and means of % ID/g for the other tissues with standard deviation (SD) shown in parenthesis.

[2] = tested on: tau accumulated in the brain with AD; assay: In vitro autoradiography using autopsied brain tissue of Alzheimer's disease patient; assay type: binding, human
Method: (Evaluation 1) In Vitro Autoradiography Using Autopsied Brain Tissue of Alzheimer's Disease Patient (1) In Vitro Autoradiography
Autopsied brain tissue sections of an Alzheimer's disease (AD) patient (sections from a frontal lobe site and a temporal lobe site, 6 μm) were used, which were provided from Graduate School of Medicine, Kyoto University and National Cerebral and Cardiovascular Center Hospital. Deparaffinization treatment was performed by washing with xylene (15 min×2), ethanol (1 min×2), a 90 vol % aqueous ethanol solution (1 min×1), an 80 vol % aqueous ethanol solution (1 min×1), a 70 vol % aqueous ethanol solution (1 min×1), and purified water (2.5 min×2). A 10 vol % aqueous ethanol solution of each radioactive iodine-labeled BIP derivative compound (370 kBq/mL) obtained by the method shown in Example 7 was added thereto, and the tissue sections were incubated at room temperature for 2 hours. The tissue sections were washed with a 50 vol % aqueous ethanol solution (1 hr×1), then exposed to an imaging plate (BAS-SR2025 manufactured by Fujifilm Corp.), and analyzed using a bioimaging analyzer (bioimaging analyzer BAS-5000 manufactured by Fujifilm Corp.). Multi Gauge manufactured by Fujifilm Corp. was used in quantitative analysis.
FIGS. 5E and 5F show the results obtained using [^125I]BIP-NMe2. FIGS. 5G and 5H show the results obtained using [^125I]BIP-OMe. FIGS. 5I and 5J show the results obtained using [^125I]BIP-Me. FIGS. 5E, 5G, and 5I show the results obtained using the brain tissue section of the frontal lobe. FIGS. 5F, 5H, and 5J show the results obtained using the brain tissue section of the temporal lobe.
Tau and Aβ were immunostained using sections adjacent to the autopsied AD brain tissue sections used in autoradiography. An anti-phosphorylated tau monoclonal antibody (AT8, manufactured by Thermo Fisher Scientific Inc.) was used as a primary antibody in the immunostaining of tau, and an anti-Aβ1-42 monoclonal antibody (BC05, manufactured by Wako Pure Chemical Industries, Ltd.) was used as a primary antibody in the immunostaining of Aβ. Deparaffinization treatment was performed by washing with xylene (15 min×2), ethanol (1 min×2), a 90 vol % aqueous ethanol solution (1 min×1), an 80 vol % aqueous ethanol solution (1 min×1), a 70 vol % aqueous ethanol solution (1 min×1), and purified water (2.5 min×2). The antigens were retrieved by autoclaving (15 min) in a 0.01 mol/L citrate buffer solution (pH 6.0) and formic acid treatment (5 min). The tissue sections were washed with running water (5 min) and then washed with PBS-Tween 20 (2 min×1). The tissue sections were reacted with primary antibody solutions at room temperature for 1 hour and then washed with PBS-Tween 20 (5 min×3). The tissue sections were reacted with Histofine Simple Stain MAX-PO (MULTI) (manufactured by Nichirei Biosciences Inc.) at room temperature for 30 minutes and then washed with PBS-Tween 20 (3 min×3) and TBS (5 min×1). Finally, the tissue sections were reacted with a DAB solution at room temperature for 1 minute. The tissue sections were washed with distilled water (1 min×1) to terminate the reaction. The brain tissue sections were mounted on slides and then observed under a microscope (BZ-9000 manufactured by Keyence Corporation).
FIGS. 5A and 5B show the results obtained using the brain tissue section of the frontal lobe. FIGS. 5C and 5D show the results obtained using the brain tissue section of the temporal lobe. FIGS. 5A and 5C show the results of immunostaining with the antibody against tau. FIGS. 5B and 5D show the results of immunostaining with the antibody against Aβ.

## COc1ccn2c(c1)nc1cc([125I])ccc12 [[^125I]BIP-OMe, 7-[^125I]iodo-3-methoxypyrido[1,2-a]benzimidazole]
[1]
  clearance from the brain: rapid clearance from the brain
  transfer to the brain early after administration: high transfer to the brain
[1]; 2 min after administration
  radioactivity distribution, Blood: 5.41(0.40) % ID/g
  radioactivity distribution, Brain: 4.30(0.41) % ID/g
  radioactivity distribution, Heart: 5.17(0.27) % ID/g
  radioactivity distribution, Intestine: 2.94(0.15) % ID/g
  radioactivity distribution, Kidney: 8.66(0.73) % ID/g
  radioactivity distribution, Liver: 17.8(3.98) % ID/g
  radioactivity distribution, Lung: 6.09(0.34) % ID/g
  radioactivity distribution, Pancreas: 4.38(0.30) % ID/g
  radioactivity distribution, Spleen: 3.60(1.10) % ID/g
  radioactivity distribution, Stomach: 2.30(0.33) % ID
  radioactivity distribution, Thyroid gland: 0.10(0.05) % ID
[1]; 10 min after administration
  radioactivity distribution, Blood: 3.39(0.12) % ID/g
  radioactivity distribution, Brain: 0.71(0.14) % ID/g
  radioactivity distribution, Heart: 1.94(0.18) % ID/g
  radioactivity distribution, Intestine: 8.99(1.43) % ID/g
  radioactivity distribution, Kidney: 7.38(1.46) % ID/g
  radioactivity distribution, Liver: 16.2(1.80) % ID/g
  radioactivity distribution, Lung: 3.33(0.24) % ID/g
  radioactivity distribution, Pancreas: 1.59(0.18) % ID/g
  radioactivity distribution, Spleen: 3.16(0.18) % ID/g
  radioactivity distribution, Stomach: 5.47(0.88) % ID
  radioactivity distribution, Thyroid gland: 0.04(0.02) % ID
[1]; 30 min after administration
  radioactivity distribution, Blood: 2.24(0.27) % ID/g
  radioactivity distribution, Brain: 0.17(0.02) % ID/g
  radioactivity distribution, Heart: 0.99(0.08) % ID/g
  radioactivity distribution, Intestine: 16.8(4.30) % ID/g
  radioactivity distribution, Kidney: 5.74(2.30) % ID/g
  radioactivity distribution, Liver: 7.25(1.28) % ID/g
  radioactivity distribution, Lung: 1.76(0.11) % ID/g
  radioactivity distribution, Pancreas: 0.86(0.22) % ID/g
  radioactivity distribution, Spleen: 1.07(0.08) % ID/g
  radioactivity distribution, Stomach: 6.62(1.28) % ID
  radioactivity distribution, Thyroid gland: 0.01(0.00) % ID
[1]; 60 min after administration
  radioactivity distribution, Blood: 1.27(0.15) % ID/g
  radioactivity distribution, Brain: 0.08(0.03) % ID/g
  radioactivity distribution, Heart: 0.52(0.08) % ID/g
  radioactivity distribution, Intestine: 20.1(4.03) % ID/g
  radioactivity distribution, Kidney: 2.20(1.20) % ID/g
  radioactivity distribution, Liver: 4.61(0.35) % ID/g
  radioactivity distribution, Lung: 1.21(0.30) % ID/g
  radioactivity distribution, Pancreas: 0.53(0.13) % ID/g
  radioactivity distribution, Spleen: 0.63(0.10) % ID/g
  radioactivity distribution, Stomach: 5.34(1.23) % ID
  radioactivity distribution, Thyroid gland: 0.01(0.00) % ID
[2]; AD patient autopsied brain section, frontal lobe, 370 kBq/mL, 2 hours room temperature
  radioactivity accumulation in the brain tissue section of the frontal lobe: none
[2]; AD patient autopsied brain section, temporal lobe, 370 kBq/mL, 2 hours room temperature
  radioactivity accumulation in the brain tissue section of the temporal lobe: exhibited radioactivity accumulation in only the brain tissue section of the temporal lobe
[2]; AD patient autopsied brain sections
  nonspecific binding to the brain white matter: low
[2]; AD patient temporal lobe section, adjacent sections immunostained (AT8, BC05)
  visualization of tau (autoradiography compared with tau and Aβ immunostaining): clearly visualizes tau accumulated in the brain with AD
